For 30 compounds, IC50 results are on record in PubChem BioAssay AID493077 (The Scripps Research Institute Molecular Screening Center, 2011).

SMILES strings stand for the structures. Activity calls are given as the source filed them.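 Rule for the calls: active = Zta binding inhibitor with IC50 at or below 10 µM; inactive = IC50 above 10 µM.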 A value given as a limit tells only on which side of the number the result lay.

Chain of Lytic switch protein BZLF1 (Epstein-Barr virus (strain B95-8)) (P03206 whole entry, looked up): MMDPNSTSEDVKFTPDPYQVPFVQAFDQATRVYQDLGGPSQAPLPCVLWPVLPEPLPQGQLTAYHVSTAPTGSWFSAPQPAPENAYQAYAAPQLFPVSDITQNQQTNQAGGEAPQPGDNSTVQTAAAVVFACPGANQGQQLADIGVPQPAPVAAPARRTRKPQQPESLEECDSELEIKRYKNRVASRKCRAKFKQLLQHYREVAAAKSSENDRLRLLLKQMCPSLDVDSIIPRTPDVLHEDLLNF

The test addresses Lytic switch protein BZLF1 (Epstein-Barr virus (strain B95-8)) (UniProt P03206). As to the kind of experiment: EBV Zta DNA binding inhibitor potency, late-stage follow-up, counter-screen for EBNA-1 inhibitor project, biochemical, fluorescence polarization, dose response, assay provider (AID 493077). As to conditions: purified Zta, Cy5-ZRE DNA. (In general: The purpose of a counterscreen is to sort out artefacts and off-target activity.)
Regarding `CS(=O)(=O)c1ccc2nc(NC(=O)c3ccccc3Cl)sc2c1`, the IC50 was > 111 µM (inactive). For `Cc1ccc(-n2nnnc2SCC(=O)c2cc(C)n(CC3CCCO3)c2C)cc1` (stereo not given) the value was > 111 µM (inactive). Under `CCn1c(C)cc(C(=O)CSc2nnnn2-c2ccccc2)c1C` stands > 111 µM (inactive); under `COc1cccc2sc(NC(=O)c3ccc(C)c(C)c3)nc12`, > 111 µM (inactive). For `Cc1cccc(-n2nnnc2SCC(=O)c2cc(C)n(CC3CCCO3)c2C)c1` (stereo not given) the value was > 111 µM (inactive); for `COc1cccc(C(=O)Nc2nc3ccc(S(C)(=O)=O)cc3s2)c1`, > 111 µM (inactive). Turning to `CS(=O)(=O)c1ccc2nc(NC(=O)c3ccc(Cl)cc3)sc2c1`, the IC50 was > 111 µM (inactive). For `COc1ccc(-n2nnnc2SCC(=O)c2cc(C)n(CC3CCCO3)c2C)cc1` (stereo not given) the value was > 111 µM (inactive); for `Cc1cc(C(=O)CSc2nnnn2C)c(C)n1CC1CCCO1` (stereo not given), > 111 µM (inactive). For `Cc1cc(C(=O)CSc2nnnn2-c2ccccc2)c(C)n1Cc1cccs1` the value was > 111 µM (inactive). On to `Cc1ccc(C(=O)Nc2nc3ccc(Br)cc3s2)cc1C`, for which the IC50 is > 111 µM (inactive). In the case of `Cc1ccc(C(=O)Nc2nc3cc(F)ccc3s2)cc1C`, the IC50 is > 111 µM (inactive).

As to `Cc1cc(C(=O)CSc2nnnn2C2CC2)c(C)n1CC1CCCO1` (stereo not given), the IC50 is > 111 µM (inactive).

As for `CS(=O)(=O)c1ccc2nc(NC(=O)c3ccccc3F)sc2c1`, the IC50 is > 111 µM (inactive).

Take `COc1ccc(C(=O)Nc2nc3ccc(S(C)(=O)=O)cc3s2)cc1`: the IC50 was > 111 µM (inactive).

Take `O=C(CSc1nnnn1-c1ccccc1)c1ccn(CC2CCCO2)c1` (stereo not given): the IC50 was > 111 µM (inactive). As to `COc1ccccc1C(=O)Nc1nc2ccc(S(C)(=O)=O)cc2s1`, the IC50 was > 111 µM (inactive). For `CS(=O)(=O)c1ccc2nc(NC(=O)c3cccc(F)c3)sc2c1`, the IC50 is > 111 µM (inactive). For `Cc1ccc(C(=O)Nc2nc3cc(Br)ccc3s2)cc1C`, the IC50 was > 111 µM (inactive). For `COc1ccc2nc(NC(=O)c3ccc(C)c(C)c3)sc2c1` the value was > 111 µM (inactive); for `COc1ccc2sc(NC(=O)c3ccc(C)c(C)c3)nc2c1`, > 111 µM (inactive); for `Cc1cc(C(=O)CSc2nnnn2-c2ccccc2)c(C)n1C`, > 111 µM (inactive). For `Cc1cccc(C(=O)Nc2nc3ccc(S(C)(=O)=O)cc3s2)c1` the value was > 111 µM (inactive). For `Cc1cc(C(=O)CSc2nnnn2-c2ccc(Cl)cc2)c(C)n1CC1CCCO1` (stereo not given) the value was > 111 µM (inactive); for `Cc1ccc(C(=O)Nc2nc3ccc(S(C)(=O)=O)cc3s2)cc1`, > 111 µM (inactive). Consider `COCCn1c(C)cc(C(=O)CSc2nnnn2-c2ccccc2)c1C`, for which the IC50 is > 111 µM (inactive). Turning to `Cc1ccccc1-n1nnnc1SCC(=O)c1cc(C)n(CC2CCCO2)c1C` (stereo not given), the IC50 was > 111 µM (inactive). Under `Cc1ccccc1C(=O)Nc1nc2ccc(S(C)(=O)=O)cc2s1` stands > 111 µM (inactive); under `CS(=O)(=O)c1ccc2nc(NC(=O)c3cccc(Cl)c3)sc2c1`, > 111 µM (inactive); under `Cc1cc(C(=O)CSc2nnnn2-c2cccc(F)c2)c(C)n1CC1CCCO1` (stereo not given), > 111 µM (inactive).

For orientation: IC50 means the midpoint of a concentration-inhibition curve.
